In one experiment the target is T1, Human αvβ3 (Homo sapiens, UniProt P05106+P06756).
T1 construct: purchased Chemicon International Inc., Temecula, Calif
The experiment is described as follows: In vitro solid phase purified αvβ3 binding assay (vitronectin/αvβ3). To be noted: isolated human αvβ3, 5 nM vitronectin; read-out: αvβ3 Binding IC50. The method, then:
(§1) In vitro Solid Phase Purified αvβ3 Binding Assay The vitronectin/αvβ3 binding assay methods were derived from Mehta et al. (Biochem J. 1998, 330, 861). Human αvβ3 (Chemicon International Inc., Temecula, Calif.), at a concentration of 1 μg/ml dissolved in Tris buffer (20 mM Tris, 1 mM CaCl2, 1 mM MgCl2, 10 μM MnCl2, 150 mM NaCl), was immobilized on Immulon 96 well plates (Dynex Technologies, Chantilly, Va.) overnight at 4° C. Plates were washed and treated with blocking buffer (3% BSA in Tris buffer) for 2 h at 37 C. Plates were then rinsed 2 times in Tris buffer containing 0.3% BSA and 0.2% Tween20 (polyoxyethylenesorbitan monolaurate). Five minutes prior to the addition of 5 nM vitronectin (Sigma, St. Louis, Mo.), compounds of the invention were added to wells in duplicate. Each plate included c-RGDfV as an internal control. Following a 3 hour incubation at 37° C., plates were washed 5 times in assay buffer. An anti-human vitronectin IgG rabbit polyclonal antibody (Calbiochem, San Diego, Calif.) was added (1:2000) and plates were incubated for 1 hour at room temperature. VectaStain ABC peroxidase kit reagents (Vector Laboratories, Burlingame, Calif.) employing a biotin labeled anti-rabbit IgG, were utilized for detection of bound antibody. Plates were read at 490 nm on a Molecular Devices (Sunnyvale, Calif.) microplate reader. […] The plate was covered and incubated overnight at 4° C. The GPIIb/IIIa solution was discarded and 150 μl of 5% BSA was added and incubated at RT for 1–3 h. The plate was washed extensively with modified Tyrodes buffer. Biotinylated fibrinogen (25 μl/well) at 2× final concentration was added to the wells that contain the test compounds (25 μl/well). The plate was covered and incubated at RT for 2–4 h. Twenty minutes prior to incubation completion, one drop of Reagent A (VectaStain ABC Horse Radish Peroxidase kit, Vector Laboratories, Inc.) and one drop Reagent B were added with mixing to 5 mL modified Tyrodes buffer mix and let stand. The ligand solution was discarded and the plate washed (5×200 μl/well) with modified Tyrodes buffer. Vecta Stain HRP-Biotin-Avidin reagent (50 μl/well, as prepared above) was added and incubated at RT for 15 min. The Vecta Stain solution was discarded and the wells washed (5×200 μl/well) with modified Tyrodes buffer. Developing buffer (10 mL of 50 mM citrate/phosphate buffer @ pH 5.3, 6 mg o-phenylenediamine, 6 μl 30% H2O2; 50 μl/well) was added and incubated at rt for 3–5 min, and then 2 N H2SO4 (50 μl/well) was added. The absorbance was read at 490 nm.

The next experiment has as its target GPIIb/IIIa (Homo sapiens, UniProt P05106+P08514). As to the kind of experiment: In vitro solid phase purified glycoprotein IIb/IIIa binding assay (biotinylated fibrinogen). To be noted: RGD-affinity purified GPIIb/IIIa, biotinylated fibrinogen; read-out: GPIIb/IIIa Binding IC50. The protocol: as §1

GPIIb/IIIa, sequence (P08514 32-887 limits assumed): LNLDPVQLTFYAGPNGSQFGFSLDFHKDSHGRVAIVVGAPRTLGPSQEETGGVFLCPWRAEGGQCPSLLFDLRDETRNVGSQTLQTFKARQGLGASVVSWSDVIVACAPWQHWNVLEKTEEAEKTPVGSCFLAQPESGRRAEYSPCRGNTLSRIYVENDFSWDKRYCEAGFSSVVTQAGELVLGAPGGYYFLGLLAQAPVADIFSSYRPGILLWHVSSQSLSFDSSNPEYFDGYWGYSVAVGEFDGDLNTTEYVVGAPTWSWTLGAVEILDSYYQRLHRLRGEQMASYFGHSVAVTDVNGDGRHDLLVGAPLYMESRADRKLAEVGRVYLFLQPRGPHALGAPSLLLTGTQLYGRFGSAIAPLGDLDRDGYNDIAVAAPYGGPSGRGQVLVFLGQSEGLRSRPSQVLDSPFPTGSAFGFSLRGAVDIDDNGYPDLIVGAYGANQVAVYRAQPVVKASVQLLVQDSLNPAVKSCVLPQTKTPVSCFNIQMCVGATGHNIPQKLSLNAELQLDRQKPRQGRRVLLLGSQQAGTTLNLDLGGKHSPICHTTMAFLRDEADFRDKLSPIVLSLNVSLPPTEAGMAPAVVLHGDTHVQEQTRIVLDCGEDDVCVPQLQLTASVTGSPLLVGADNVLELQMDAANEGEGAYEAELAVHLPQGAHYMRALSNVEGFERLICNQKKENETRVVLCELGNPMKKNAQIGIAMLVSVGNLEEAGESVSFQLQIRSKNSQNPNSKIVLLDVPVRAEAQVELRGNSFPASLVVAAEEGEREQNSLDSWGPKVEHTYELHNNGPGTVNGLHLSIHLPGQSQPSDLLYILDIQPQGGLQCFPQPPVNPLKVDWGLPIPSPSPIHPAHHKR
GPIIb/IIIa, sequence (P08514 891-1039 partner limits assumed): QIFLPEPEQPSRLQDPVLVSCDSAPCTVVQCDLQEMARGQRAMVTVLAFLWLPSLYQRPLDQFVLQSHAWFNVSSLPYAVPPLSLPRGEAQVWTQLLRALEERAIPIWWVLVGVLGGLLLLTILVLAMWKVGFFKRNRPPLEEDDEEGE
GPIIb/IIIa, sequence (P05106 27-788): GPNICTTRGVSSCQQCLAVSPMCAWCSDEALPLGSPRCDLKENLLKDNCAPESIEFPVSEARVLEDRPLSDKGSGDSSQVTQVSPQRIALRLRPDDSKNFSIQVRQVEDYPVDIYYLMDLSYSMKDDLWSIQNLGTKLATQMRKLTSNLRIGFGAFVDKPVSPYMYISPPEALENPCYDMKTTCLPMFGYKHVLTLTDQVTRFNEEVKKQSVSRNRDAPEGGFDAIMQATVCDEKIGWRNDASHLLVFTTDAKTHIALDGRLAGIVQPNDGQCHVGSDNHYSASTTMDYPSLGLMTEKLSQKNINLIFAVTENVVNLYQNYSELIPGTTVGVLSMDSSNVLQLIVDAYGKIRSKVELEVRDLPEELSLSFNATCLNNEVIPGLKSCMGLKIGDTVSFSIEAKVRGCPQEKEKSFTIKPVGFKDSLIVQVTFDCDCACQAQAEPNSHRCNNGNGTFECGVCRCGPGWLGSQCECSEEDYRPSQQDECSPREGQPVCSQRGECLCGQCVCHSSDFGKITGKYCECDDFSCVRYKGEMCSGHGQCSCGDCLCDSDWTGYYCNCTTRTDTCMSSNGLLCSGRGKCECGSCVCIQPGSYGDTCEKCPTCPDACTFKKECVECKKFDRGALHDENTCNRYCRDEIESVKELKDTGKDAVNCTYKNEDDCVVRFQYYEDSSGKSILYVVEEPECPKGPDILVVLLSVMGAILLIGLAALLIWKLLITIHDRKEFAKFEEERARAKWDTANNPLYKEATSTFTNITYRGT
T1 sequence (P06756 31-889 limits assumed): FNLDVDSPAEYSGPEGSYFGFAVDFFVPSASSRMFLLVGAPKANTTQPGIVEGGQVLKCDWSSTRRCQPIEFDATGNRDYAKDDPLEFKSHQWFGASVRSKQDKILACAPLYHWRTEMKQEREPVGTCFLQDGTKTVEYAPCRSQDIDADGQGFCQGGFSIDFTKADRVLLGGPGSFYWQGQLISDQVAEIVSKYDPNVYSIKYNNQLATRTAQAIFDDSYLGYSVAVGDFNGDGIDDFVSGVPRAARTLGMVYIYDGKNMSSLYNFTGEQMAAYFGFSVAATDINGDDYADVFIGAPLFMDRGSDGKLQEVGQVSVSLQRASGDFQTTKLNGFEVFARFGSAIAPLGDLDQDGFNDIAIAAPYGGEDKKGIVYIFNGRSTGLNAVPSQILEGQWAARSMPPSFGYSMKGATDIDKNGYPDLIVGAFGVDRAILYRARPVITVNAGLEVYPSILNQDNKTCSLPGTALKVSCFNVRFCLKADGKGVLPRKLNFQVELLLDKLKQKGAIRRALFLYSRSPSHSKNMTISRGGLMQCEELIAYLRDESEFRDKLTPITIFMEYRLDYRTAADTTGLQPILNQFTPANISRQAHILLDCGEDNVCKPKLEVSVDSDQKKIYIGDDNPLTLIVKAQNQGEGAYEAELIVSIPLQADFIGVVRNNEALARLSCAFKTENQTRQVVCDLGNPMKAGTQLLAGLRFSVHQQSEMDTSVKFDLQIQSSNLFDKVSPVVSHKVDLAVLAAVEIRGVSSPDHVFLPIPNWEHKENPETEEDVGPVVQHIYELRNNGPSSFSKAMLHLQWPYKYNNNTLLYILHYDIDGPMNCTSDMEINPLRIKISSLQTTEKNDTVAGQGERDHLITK
T1 sequence (P06756 891-1048 partner limits assumed): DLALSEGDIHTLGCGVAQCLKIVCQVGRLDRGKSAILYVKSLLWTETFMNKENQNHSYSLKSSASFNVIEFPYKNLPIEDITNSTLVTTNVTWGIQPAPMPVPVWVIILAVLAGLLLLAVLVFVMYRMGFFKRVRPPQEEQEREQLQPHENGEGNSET
T1 sequence (P05106 27-788): as the sequence (P05106 27-788) above

As to `Cc1cccnc1NC/C=C/c1ccc2nc(C[C@H](NS(=O)(=O)c3c(C)c(C)c(C)c(C)c3C)C(=O)O)[nH]c(=O)c2c1` [Compound 38, (αS)-3,4-dihydro-6-[(1E)-3-[(3-methyl-2-pyridinyl)amino]-1-propenyl]-4-oxo-α-[[(2,3,4,5,6-pentamethylphenyl)sulfonyl]amino]-2-quinazolinepropanoic acid], the IC50 is 1400 nM at Human αvβ3 and 220 nM on GPIIb/IIIa.
For `Cc1c(C)c(C)c(S(=O)(=O)N[C@@H](Cc2nc3ccc(/C=C/CNc4ccc(Cl)cn4)cc3c(=O)[nH]2)C(=O)O)c(C)c1C` [Compound 39, 6-[(1E)-3-[(5-chloro-2-pyridinyl)amino]-1-propenyl]-(αS)-3,4-dihydro-4-oxo-α-[[(2,3,4,5,6-pentamethylphenyl)sulfonyl]amino]-2-quinazolinepropanoic acid], in that order: 1800 nM and 1800 nM.
For `COc1ccc(S(=O)(=O)N[C@@H](Cc2nc3ccc(/C=C/CNc4ccc(Cl)cn4)cc3c(=O)[nH]2)C(=O)O)cc1` [Compound 40, 6-[(1E)-3-[(5-chloro-2-pyridinyl)amino]-1-propenyl]-(αS)-3,4-dihydro-α-[[(4-methoxyphenyl)sulfonyl]amino]-4-oxo-2-quinazolinepropanoic acid] the same measures were 740 nM and 1900 nM.
Regarding `COC(=O)[C@H](Cc1nc2ccc(/C=C/CNC3=NCCN3)cc2c(=O)[nH]1)NS(=O)(=O)c1c(C)c(C)c(C)c(C)c1C` [Compound 41, 6-[(1E)-3-[(4,5-dihydro-1H-imidazol-2-yl)amino]-1-propenyl]-(αS)-3,4-dihydro-4-oxo-α-[[(2,3,4,5,6-pentamethylphenyl)sulfonyl]amino]methyl ester 2-quinazolinepropanoic acid], the IC50 at Human αvβ3 was determined as 19 nM; on GPIIb/IIIa it was 240 nM.
For `Cc1c(C)c(C)c(S(=O)(=O)N[C@@H](Cc2nc3ccc(/C=C/CCNC4=NCCN4)cc3c(=O)[nH]2)C(=O)O)c(C)c1C` [Compound 42, 6-[(1E)-4-[(4,5-dihydro-1H-imidazol-2-yl)amino]-1-butenyl]-(αS)-3,4-dihydro-4-oxo-α-[[(2,3,4,5,6-pentamethylphenyl)sulfonyl]amino]-2-quinazolinepropanoic acid] the same measures were 5.4 nM and 60 nM.
As to `Cc1ccc(NC/C=C/c2ccc3nc(C[C@H](NS(=O)(=O)c4c(C)c(C)c(C)c(C)c4C)C(=O)O)[nH]c(=O)c3c2)nc1` [Compound 43, (αS)-3,4-dihydro-6-[(1E)-3-[(5-methyl-2-pyridinyl)amino]-1-propenyl]-4-oxo-α-[[(2,3,4,5,6-pentamethylphenyl)sulfonyl]amino]-2-quinazolinepropanoic acid], the values for the IC50 on Human αvβ3 and at GPIIb/IIIa were 22 nM and 880 nM, respectively.
For `COc1ccc(S(=O)(=O)N[C@@H](Cc2nc3ccc(/C=C/CNc4ccc(C)cn4)cc3c(=O)[nH]2)C(=O)O)cc1OC` [Compound 44, α-[[(3,4-dimethoxyphenyl)sulfonyl]amino]-(αS)-3,4-dihydro-6-[(1E)-3-[(5-methyl-2-pyridinyl)amino]-1-propenyl]-4-oxo-2-quinazolinepropanoic acid], in that order: 24 nM and 790 nM.
As for `Cc1ccnc(NC/C=C/c2ccc3nc(C[C@H](NS(=O)(=O)c4c(C)c(C)c(C)c(C)c4C)C(=O)O)[nH]c(=O)c3c2)c1` [Compound 45, (αS)-3,4-dihydro-6-[(1E)-3-[(4-methyl-2-pyridinyl)amino]-1-propenyl]-4-oxo-α-[[(2,3,4,5,6-pentamethylphenyl)sulfonyl]amino]-2-quinazolinepropanoic acid], the IC50 turned out to be 15 nM at Human αvβ3 and 1800 nM at GPIIb/IIIa.
As to `COc1ccc(S(=O)(=O)N[C@@H](Cc2nc3ccc(/C=C/CNc4cc(C)ccn4)cc3c(=O)[nH]2)C(=O)O)cc1OC` [Compound 46, α-[[(3,4-dimethoxyphenyl)sulfonyl]amino]-(αS)-3,4-dihydro-6-[(1E)-3-[(4-methyl-2-pyridinyl)amino]-1-propenyl]-4-oxo-2-quinazolinepropanoic acid], the IC50 at Human αvβ3 turned out to be 5.8 nM; at GPIIb/IIIa, 740 nM.
For `Cc1c(C)c(C)c(S(=O)(=O)N[C@@H](Cc2nc3ccc(/C=C/CNC(=N)c4cccnc4)cc3c(=O)[nH]2)C(=O)O)c(C)c1C` [Compound 47, (αS)-3,4-dihydro-6-[(1E)-3-[(imino-3-pyridinylmethyl)amino]-1-propenyl]-4-oxo-α-[[(2,3,4,5,6-pentamethylphenyl)sulfonyl]amino]-2-quinazolinepropanoic acid] the same measures were 132 nM and 96 nM.
Regarding `COc1ccc(S(=O)(=O)N[C@@H](Cc2nc3ccc(/C=C/CNC4=NCCN4)cc3c(=O)[nH]2)C(=O)O)cc1OC` [Compound 48, 6-[(1E)-3-[(4,5-dihydro-1H-imidazol-2-yl)amino]-1-propenyl]-α-[[(3,4-dimethoxyphenyl)sulfonyl]amino]-(αS)-3,4-dihydro-4-oxo-2-quinazolinepropanoic acid], the IC50 at Human αvβ3 was 11 nM; at GPIIb/IIIa, 64 nM.
Consider `Cc1c(C)c(C)c(S(=O)(=O)N[C@@H](Cc2nc3ccc(/C=C/CNC(=O)NCc4ccccc4)cc3c(=O)[nH]2)C(=O)O)c(C)c1C` [Compound 49, (αS)-3,4-dihydro-4-oxo-α-[[(2,3,4,5,6-pentamethylphenyl)sulfonyl]amino]-6-[(1E)-3-[[(benzylamino)carbonyl]amino]-1-propenyl]-2-quinazolinepropanoic acid], for which the figures for the IC50 on Human αvβ3 and on GPIIb/IIIa were 8.8 nM and 820 nM, respectively.
For `COc1ccc(S(=O)(=O)N[C@@H](Cc2nc3ccc(/C=C/CNC4=NCCN4)cc3c(=O)[nH]2)C(=O)O)cc1` [Compound 50, 6-[(1E)-3-[(4,5-dihydro-1H-imidazol-2-yl)amino]-1-propenyl]-(αS)-3,4-dihydro-α-[[(4-methoxyphenyl)sulfonyl]amino]-4-oxo-2-quinazolinepropanoic acid], in that order: 6.8 nM and 51 nM.
For `CCCCNC(=O)NC/C=C/c1ccc2nc(C[C@H](NS(=O)(=O)c3c(C)c(C)c(C)c(C)c3C)C(=O)O)[nH]c(=O)c2c1` [Compound 51, 6-[(1E)-3-[[(butylamino)carbonyl]amino]-1-propenyl]-(αS)-3,4-dihydro-4-oxo-α-[[(2,3,4,5,6-pentamethylphenyl)sulfonyl]amino]-2-quinazolinepropanoic acid] the same measures were 17 nM and 4800 nM.
For `Cc1c(C)c(C)c(S(=O)(=O)N[C@@H](Cc2nc3ccc(/C=C/CNC4=NCCCC4)cc3c(=O)[nH]2)C(=O)O)c(C)c1C` [Compound 52, (αS)-3,4-dihydro-4-oxo-α-(α^2S)-[[(2,3,4,5,6-pentamethylphenyl)sulfonyl]amino]-6-[(1E)-3-[(3,4,5,6-tetrahydro-2-pyridinyl)amino]-1-propenyl]-2-quinazolinepropanoic acid] the same measures were 24 nM and 110 nM.
Regarding `Cc1c(C)c(C)c(S(=O)(=O)N[C@@H](Cc2nc3ccc(/C=C/CNC(N)=O)cc3c(=O)[nH]2)C(=O)O)c(C)c1C` [Compound 53, 6-[(1E)-3-[(aminocarbonyl)amino]-1-propenyl]-(αS)-3,4-dihydro-4-oxo-α-[[(2,3,4,5,6-pentamethylphenyl)sulfonyl]amino]-2-quinazolinepropanoic acid], the values for the IC50 on Human αvβ3 and at GPIIb/IIIa were 31 nM and 200 nM, respectively.
